Publication PMC5218480 (PLoS ONE, 2017)

Tested on: MV-4-11 cells
Test: Gene expression microarray analysis (Affymetrix PrimeView) and GSEA
Format: cell-based, human
Set-up: RFU PODN (11730768_x_at) / Fold change /veh PODN (11730768_x_at) / RFU LINC00158 (11744669_a_at) / Fold change /veh LINC00158 (11744669_a_at) / RFU DUSP10 (11751237_a_at) / Fold change /veh DUSP10 (11751237_a_at) / RFU ID3 (11757404_x_at) / Fold change /veh ID3 (11757404_x_at) / RFU PLEKHG5 (11737974_s_at) / Fold change /veh PLEKHG5 (11737974_s_at) / RFU LRRC4B (11730491_at) / Fold change /veh LRRC4B (11730491_at) / RFU GIMAP4 (11747438_a_at) / Fold change /veh GIMAP4 (11747438_a_at) / RFU KRT8 (11758183_x_at) / Fold change /veh KRT8 (11758183_x_at) / RFU CNN1 (11734310_a_at) / Fold change /veh CNN1 (11734310_a_at) / RFU VPS37D (11726825_at) / Fold change /veh VPS37D (11726825_at) / RFU C10orf10 (11716522_x_at) / Fold change /veh C10orf10 (11716522_x_at) / RFU KIR2DL2 /// KIR2DL4 /// KIR2DL5A /// KIR2DL5B /// KIR2DS1 /// KIR2DS2 /// KIR2DS3 /// KIR2DS4 /// KIR3DL3 /// KIR3DL3 /// KIR3DS1 (11738374_at) / Fold change /veh KIR2DL2 /// KIR2DL4 /// KIR2DL5A /// KIR2DL5B /// KIR2DS1 /// KIR2DS2 /// KIR2DS3 /// KIR2DS4 /// KIR3DL3 /// KIR3DL3 /// KIR3DS1 (11738374_at) / RFU C1QL1 (11718748_at) / Fold change /veh C1QL1 (11718748_at) / RFU TMPRSS4 (11747572_a_at) / Fold change /veh TMPRSS4 (11747572_a_at) / RFU HAMP (11756126_x_at) / Fold change /veh HAMP (11756126_x_at) / RFU RNFT2 (11725882_a_at) / Fold change /veh RNFT2 (11725882_a_at) / RFU NR4A2 (11747474_a_at) / Fold change /veh NR4A2 (11747474_a_at) / RFU ABCC12 (11746883_a_at) / Fold change /veh ABCC12 (11746883_a_at) / RFU TMEM136 (11760407_x_at) / Fold change /veh TMEM136 (11760407_x_at) / RFU CLDN22 /// WWC2 (11732394_at) / Fold change /veh CLDN22 /// WWC2 (11732394_at) / RFU HLA-DPB1 (11760878_x_at) / Fold change /veh HLA-DPB1 (11760878_x_at) / RFU SPINT1 (11716480_a_at) / Fold change /veh SPINT1 (11716480_a_at) / RFU GAP43 (11754022_s_at) / Fold change /veh GAP43 (11754022_s_at) / RFU A4GNT (11735810_at) / Fold change /veh A4GNT (11735810_at) / RFU PRB3 (11715151_x_at) / Fold change /veh PRB3 (11715151_x_at) / RFU TUBB4B (11761932_at) / Fold change /veh TUBB4B (11761932_at) / RFU CAPN14 (11732068_a_at) / Fold change /veh CAPN14 (11732068_a_at) / RFU TMCC2 (11721928_a_at) / Fold change /veh TMCC2 (11721928_a_at) / RFU IRGQ (11745062_a_at) / Fold change /veh IRGQ (11745062_a_at) / RFU FAM174B (11720279_a_at) / Fold change /veh FAM174B (11720279_a_at) / RFU TMPRSS4 (11748680_a_at) / Fold change /veh TMPRSS4 (11748680_a_at) / RFU FAM212B (11763350_a_at) / Fold change /veh FAM212B (11763350_a_at) / RFU PLEKHG5 (11743358_a_at) / Fold change /veh PLEKHG5 (11743358_a_at) / RFU ZSCAN30 (11745921_a_at) / Fold change /veh ZSCAN30 (11745921_a_at) / RFU CMKLR1 (11741424_a_at) / Fold change /veh CMKLR1 (11741424_a_at) / RFU LOC101060620 /// MAPK8IP1 (11723275_at) / Fold change /veh LOC101060620 /// MAPK8IP1 (11723275_at) / RFU SPTSSB (11747773_x_at) / Fold change /veh SPTSSB (11747773_x_at) / RFU PRSS12 (11739890_at) / Fold change /veh PRSS12 (11739890_at) / RFU BIN1 (11741810_x_at) / Fold change /veh BIN1 (11741810_x_at) / RFU WNT11 (11732464_a_at) / Fold change /veh WNT11 (11732464_a_at) / RFU C10orf10 (11716521_a_at) / Fold change /veh C10orf10 (11716521_a_at) / RFU C5orf56 (11738089_at) / Fold change /veh C5orf56 (11738089_at) / RFU CYB561 (11721691_x_at) / Fold change /veh CYB561 (11721691_x_at) / RFU ANKRD19P (11752326_a_at) / Fold change /veh ANKRD19P (11752326_a_at) / RFU OR2T12 /// OR2T33 /// OR2T8 (11738714_s_at) / Fold change /veh OR2T12 /// OR2T33 /// OR2T8 (11738714_s_at) / RFU VCAN (11748164_a_at) / Fold change /veh VCAN (11748164_a_at) / RFU JSRP1 (11732532_at) / Fold change /veh JSRP1 (11732532_at) / RFU KRTAP10-11 (11738290_x_at) / Fold change /veh KRTAP10-11 (11738290_x_at) / RFU MYO3A (11730013_a_at) / Fold change /veh MYO3A (11730013_a_at) / RFU EBF3 (11725865_a_at) / Fold change /veh EBF3 (11725865_a_at) / RFU CAMK2N1 (11719241_x_at) / Fold change /veh CAMK2N1 (11719241_x_at) / RFU C5orf56 (11738088_a_at) / Fold change /veh C5orf56 (11738088_a_at) / RFU OLFML3 (11715873_a_at) / Fold change /veh OLFML3 (11715873_a_at) / RFU LOC100653217 /// NTM (11731650_a_at) / Fold change /veh LOC100653217 /// NTM (11731650_a_at) / RFU MAPK11 (11762145_a_at) / Fold change /veh MAPK11 (11762145_a_at) / RFU FIZ1 (11724087_x_at) / Fold change /veh FIZ1 (11724087_x_at) / RFU OASL (11726364_x_at) / Fold change /veh OASL (11726364_x_at) / RFU SOX15 (11748057_x_at) / Fold change /veh SOX15 (11748057_x_at) / RFU CD79A (11719716_a_at) / Fold change /veh CD79A (11719716_a_at) / RFU HIST1H1D (11736915_at) / Fold change /veh HIST1H1D (11736915_at) / RFU CASKIN2 (11723855_a_at) / Fold change /veh CASKIN2 (11723855_a_at) / RFU LOC730098 (11760151_x_at) / Fold change /veh LOC730098 (11760151_x_at) / RFU OR4N2 (11742367_at) / Fold change /veh OR4N2 (11742367_at) / RFU PRRT2 (11749266_a_at) / Fold change /veh PRRT2 (11749266_a_at) / RFU SNX32 (11753110_a_at) / Fold change /veh SNX32 (11753110_a_at) / RFU CDHR5 (11726645_a_at) / Fold change /veh CDHR5 (11726645_a_at) / RFU RCAN1 (11760418_a_at) / Fold change /veh RCAN1 (11760418_a_at) / RFU FAM167A (11723789_a_at) / Fold change /veh FAM167A (11723789_a_at) / RFU FAM26E (11764081_at) / Fold change /veh FAM26E (11764081_at) / RFU ISYNA1 (11749810_s_at) / Fold change /veh ISYNA1 (11749810_s_at) / RFU ACY1 (11761880_at) / Fold change /veh ACY1 (11761880_at) / RFU 11764098_at / Fold change /veh 11764098_at / RFU SAMD14 (11745864_x_at) / Fold change /veh SAMD14 (11745864_x_at) / RFU NPB (11741838_a_at) / Fold change /veh NPB (11741838_a_at) / RFU TMPRSS6 (11731388_a_at) / Fold change /veh TMPRSS6 (11731388_a_at) / RFU KRTAP10-2 (11738614_at) / Fold change /veh KRTAP10-2 (11738614_at) / RFU ARHGAP8 /// PRR5-ARHGAP8 (11727945_x_at) / Fold change /veh ARHGAP8 /// PRR5-ARHGAP8 (11727945_x_at) / RFU KRTAP5-7 /// NADSYN1 (11734609_at) / Fold change /veh KRTAP5-7 /// NADSYN1 (11734609_at) / RFU RASL12 (11751679_a_at) / Fold change /veh RASL12 (11751679_a_at) / RFU CDKN2B (11736163_a_at) / Fold change /veh CDKN2B (11736163_a_at) / RFU PRF1 (11729649_at) / Fold change /veh PRF1 (11729649_at) / RFU, ZNF638 /// ZNF638-IT1 / Fold change vs veh, ZNF638 /// ZNF638-IT1 / RFU, PANK3 / Fold change vs veh, PANK3 / RFU, SH3YL1 / Fold change vs veh, SH3YL1 / RFU, ZEB2 / Fold change vs veh, ZEB2 / RFU, NRIP1 / Fold change vs veh, NRIP1 / RFU, PTTG1IP / Fold change vs veh, PTTG1IP / RFU, CAPN2 / Fold change vs veh, CAPN2 / RFU, MED14 / Fold change vs veh, MED14 / RFU, SNORA58 / Fold change vs veh, SNORA58 / RFU, C1orf63 / Fold change vs veh, C1orf63 / RFU, LRRFIP1 / Fold change vs veh, LRRFIP1 / RFU, NDUFAF7 / Fold change vs veh, NDUFAF7 / RFU, SLC12A2 / Fold change vs veh, SLC12A2 / RFU, IBTK / Fold change vs veh, IBTK / RFU, ESF1 / Fold change vs veh, ESF1 / Fold change vs veh, TMEM50B / RFU, TAOK1 / Fold change vs veh, TAOK1 / RFU, ACBD3 / Fold change vs veh, ACBD3 / RFU, TMA16 / Fold change vs veh, TMA16 / RFU, RWDD3 / Fold change vs veh, RWDD3 / RFU, BCAT1 / Fold change vs veh, BCAT1 / RFU, EDEM3 / Fold change vs veh, EDEM3 / RFU, TMEM33 / Fold change vs veh, TMEM33 / RFU, WDR75 / Fold change vs veh, WDR75 / RFU, AHCTF1 / Fold change vs veh, AHCTF1 / RFU, TFRC / Fold change vs veh, TFRC / RFU, ZDHHC17 / Fold change vs veh, ZDHHC17 / RFU, NOM1 / Fold change vs veh, NOM1 / RFU, ARL8B / Fold change vs veh, ARL8B / RFU, ZBTB11 / Fold change vs veh, ZBTB11 / RFU, TAMM41 / Fold change vs veh, TAMM41 / RFU, KIAA1704 /// LOC100996395 / Fold change vs veh, KIAA1704 /// LOC100996395 / RFU, ING1 / Fold change vs veh, ING1 / RFU, TRMT61B / Fold change vs veh, TRMT61B / RFU, FUBP3 / Fold change vs veh, FUBP3 / RFU, TP53 / Fold change vs veh, TP53 / RFU, TNKS2 / Fold change vs veh, TNKS2 / RFU, ZFP14 / Fold change vs veh, ZFP14 / RFU, ACTR2 / Fold change vs veh, ACTR2 / RFU, PPP3R1 / Fold change vs veh, PPP3R1 / RFU, PIK3R1 / Fold change vs veh, PIK3R1 / RFU, HNRNPA1 / Fold change vs veh, HNRNPA1 / RFU, RNF170 / Fold change vs veh, RNF170 / RFU, ZNF28 / Fold change vs veh, ZNF28 / RFU, RNGTT / Fold change vs veh, RNGTT / RFU, OGT / Fold change vs veh, OGT / RFU, BRD1 / Fold change vs veh, BRD1 / RFU, MARS / Fold change vs veh, MARS / RFU, ZNF655 / Fold change vs veh, ZNF655 / RFU, FAHD1 / Fold change vs veh, FAHD1 / RFU, BDP1 / Fold change vs veh, BDP1 / RFU, LRRCC1 / Fold change vs veh, LRRCC1 / RFU, ARID1A / Fold change vs veh, ARID1A / RFU, ZNF146 / Fold change vs veh, ZNF146 / RFU, ZNF330 / Fold change vs veh, ZNF330 / RFU, GPN3 / Fold change vs veh, GPN3 / RFU, C9orf123 / Fold change vs veh, C9orf123 / RFU, N4BP2L2 / Fold change vs veh, N4BP2L2 / RFU, ARFIP1 / Fold change vs veh, ARFIP1 / RFU, FAM179B / Fold change vs veh, FAM179B / RFU, BCL10 / Fold change vs veh, BCL10 / RFU, UHRF1BP1L / Fold change vs veh, UHRF1BP1L / RFU, BET1 / Fold change vs veh, BET1 / RFU, CNOT2 / Fold change vs veh, CNOT2 / RFU, ZNF268 / Fold change vs veh, ZNF268 / Fold change vs veh, ZNF507 / RFU, DGCR2 / Fold change vs veh, DGCR2 / RFU, WDSUB1 / Fold change vs veh, WDSUB1 / Fold change vs veh, HSP90B1 /// MIR3652 / RFU, ADSS / Fold change vs veh, ADSS / RFU, GK / Fold change vs veh, GK / RFU, ZNF148 / Fold change vs veh, ZNF148 / RFU, TAF9 / Fold change vs veh, TAF9 / RFU, SLC1A5 / Fold change vs veh, SLC1A5 / RFU, SLMO2 / Fold change vs veh, SLMO2 / RFU, ABCC4 / Fold change vs veh, ABCC4 / RFU, LOC101060439 /// RAP1B / Fold change vs veh, LOC101060439 /// RAP1B / RFU, RFX7 / Fold change vs veh, RFX7 / RFU, GTPBP10 / Fold change vs veh, GTPBP10 / RFU, CNEP1R1 / Fold change vs veh, CNEP1R1 / RFU, BIVM-ERCC5 /// ERCC5 / Fold change vs veh, BIVM-ERCC5 /// ERCC5 / RFU, ILF3 / Fold change vs veh, ILF3 / RFU 11762660_at / Fold change /veh 11762660_at / RFU VCAN (11757783_s_at) / Fold change /veh VCAN (11757783_s_at) / RFU DDX43 (11728927_at) / Fold change /veh DDX43 (11728927_at) / RFU KRT8 (11758188_x_at) / Fold change /veh KRT8 (11758188_x_at) / RFU NKD1 (11759106_at) / Fold change /veh NKD1 (11759106_at) / RFU SRD5A1 (11742802_a_at) / Fold change /veh SRD5A1 (11742802_a_at) / RFU TPSAB1 /// TPSB2 (11721975_s_at) / Fold change /veh TPSAB1 /// TPSB2 (11721975_s_at) / RFU GSTM3 (11746129_a_at) / Fold change /veh GSTM3 (11746129_a_at) / RFU IL23R (11737362_x_at) / Fold change /veh IL23R (11737362_x_at) / RFU TMEM51 (11727254_a_at) / Fold change /veh TMEM51 (11727254_a_at) / RFU PIWIL2 (11732686_x_at) / Fold change /veh PIWIL2 (11732686_x_at) / RFU ORM1 (11744905_x_at) / Fold change /veh ORM1 (11744905_x_at) / RFU CCDC152 (11743942_at) / Fold change /veh CCDC152 (11743942_at) / RFU ECM1 (11717891_a_at) / Fold change /veh ECM1 (11717891_a_at) / RFU IL23R (11748794_a_at) / Fold change /veh IL23R (11748794_a_at) / RFU TNFAIP8L3 (11732012_x_at) / Fold change /veh TNFAIP8L3 (11732012_x_at) / RFU MBOAT4 (11741988_at) / Fold change /veh MBOAT4 (11741988_at) / RFU 11764193_at / Fold change /veh 11764193_at / RFU TMEM53 (11763286_at) / Fold change /veh TMEM53 (11763286_at) / RFU MAGEB2 (11727129_at) / Fold change /veh MAGEB2 (11727129_at) / RFU TMEM200A (11744735_a_at) / Fold change /veh TMEM200A (11744735_a_at) / RFU CCDC152 (11751479_a_at) / Fold change /veh CCDC152 (11751479_a_at) / RFU FAM211A (11726209_a_at) / Fold change /veh FAM211A (11726209_a_at) / RFU RGS16 (11746705_a_at) / Fold change /veh RGS16 (11746705_a_at) / RFU VCAN (11755009_s_at) / Fold change /veh VCAN (11755009_s_at) / RFU RHOB (11743442_s_at) / Fold change /veh RHOB (11743442_s_at) / RFU RGS16 (11720943_a_at) / Fold change /veh RGS16 (11720943_a_at) / RFU RGS16 (11720944_at) / Fold change /veh RGS16 (11720944_at) / RFU, VPS4B / Fold change vs veh, VPS4B / RFU, CREB1 / Fold change vs veh, CREB1 / RFU, DNAJC13 / Fold change vs veh, DNAJC13 / RFU, GNAQ / Fold change vs veh, GNAQ / RFU, CDK5R1 / Fold change vs veh, CDK5R1 / RFU, ZRANB3 / Fold change vs veh, ZRANB3 / RFU, CUL4A / Fold change vs veh, CUL4A / RFU, CCNY / Fold change vs veh, CCNY / RFU, UFL1 / Fold change vs veh, UFL1 / RFU, COG3 / Fold change vs veh, COG3 / RFU, DIAPH2 / Fold change vs veh, DIAPH2 / RFU, SKA2 / Fold change vs veh, SKA2 / RFU, AFF3 / Fold change vs veh, AFF3 / RFU, LMF1 / Fold change vs veh, LMF1 / RFU, IPO11 / Fold change vs veh, IPO11 / RFU, DFFB / Fold change vs veh, DFFB / RFU, FOXP1 / Fold change vs veh, FOXP1 / RFU, CARD8 / Fold change vs veh, CARD8 / RFU, STRN3 / Fold change vs veh, STRN3 / RFU, ADK / Fold change vs veh, ADK / RFU, RASSF2 / Fold change vs veh, RASSF2 / RFU, WIPF1 / Fold change vs veh, WIPF1 / RFU, LARP1B / Fold change vs veh, LARP1B / RFU, RASA1 / Fold change vs veh, RASA1 / RFU, RB1 / Fold change vs veh, RB1 / RFU, PPFIA1 / Fold change vs veh, PPFIA1 / RFU, MAT2A / Fold change vs veh, MAT2A / RFU, CCT5 / Fold change vs veh, CCT5 / RFU, WDR92 / Fold change vs veh, WDR92 / RFU, CUX1 / Fold change vs veh, CUX1 / RFU, TTC7A / Fold change vs veh, TTC7A / RFU, TMEM135 / Fold change vs veh, TMEM135 / RFU, DEPTOR / Fold change vs veh, DEPTOR / RFU, CPM / Fold change vs veh, CPM / RFU, DNAJB6 / Fold change vs veh, DNAJB6 / RFU, CACNA2D3 / Fold change vs veh, CACNA2D3 / RFU, DTX4 / Fold change vs veh, DTX4 / RFU, TFCP2 / Fold change vs veh, TFCP2 / RFU, GMCL1 /// GMCL1P1 / Fold change vs veh, GMCL1 /// GMCL1P1 / RFU, AEBP2 / Fold change vs veh, AEBP2 / RFU, SNHG1 /// SNORD22 /// SNORD25 /// SNORD26 /// SNORD27 /// SNORD28 /// SNORD29 /// SNORD31 / Fold change vs veh, SNHG1 /// SNORD22 /// SNORD25 /// SNORD26 /// SNORD27 /// SNORD28 /// SNORD29 /// SNORD31 / Fold change (Aza/veh), C12orf56 (ProbeSet 11735607_a_at) / Fold change (ACY-1035/veh), C12orf56 (ProbeSet 11735607_a_at) / Fold change (Aza/veh), FGFR1OP (ProbeSet 11751329_s_at) / Fold change (ACY-1035/veh), FGFR1OP (ProbeSet 11751329_s_at) / Fold change (Aza/veh), VPS36 (ProbeSet 11739960_a_at) / Fold change (ACY-1035/veh), VPS36 (ProbeSet 11739960_a_at) / RFU SYPL1 (11715823_x_at) / Fold change /veh SYPL1 (11715823_x_at) / RFU IGFBP7 (11715501_s_at) / Fold change /veh IGFBP7 (11715501_s_at) / RFU REEP3 (11722064_at) / Fold change /veh REEP3 (11722064_at) / RFU IGLL1 (11728026_x_at) / Fold change /veh IGLL1 (11728026_x_at): dose or concentration left out as unconfirmed
Details: MV-4-11 cells, 48 hours

SMILES: Nc1ncn([C@@H]2O[C@H](CO)[C@@H](O)[C@H]2O)c(=O)n1 [azacitidine]
- Fold change /veh KRTAP5-7 /// NADSYN1 (11734609_at): 1.00
